Test results: patent US11332512B2, “Peptides and combination of peptides for use in immunotherapy against various tumors” (Immatics Biotechnologies GmbH, priority 2015, dated 2022)

Experiments:
CD8+ T cells = experiment: In vitro immunogenicity: T-cell priming with aAPCs loaded with peptide/MHC and anti-CD28, pMHC multimer readout; format: cell-based, human; conditions: percentage of positive wells among evaluable, HLA-A*02 restricted peptides
From the text: In order to obtain information regarding the immunogenicity of the TUMAPs of the present invention, the inventors performed investigations using an in vitro T-cell priming assay based on repeated stimulations of CD8+ T cells with artificial antigen presenting cells (aAPCs) loaded with peptide/MHC complexes and anti-CD28 antibody.
In order to perform in vitro stimulations by artificial antigen presenting cells loaded with peptide-MHC complex (pMHC) and anti-CD28 antibody, the inventors first isolated CD8+ T cells from fresh HLA-A*02 leukapheresis products via positive selection using CD8 microbeads (Miltenyi Biotec, Bergisch-Gladbach, Germany) of healthy donors obtained from the University clinics Mannheim, Germany, after informed consent. PBMCs and isolated CD8+ lymphocytes were incubated in T-cell medium (TCM) until use consisting of RPMI-Glutamax (Invitrogen, Karlsruhe, Germany) supplemented with 10% heat inactivated human AB serum (PAN-Biotech, Aidenbach, Germany), 100 U/ml Penicillin/100 μg/ml Streptomycin (Cambrex, Cologne, Germany), 1 mM sodium pyruvate (CC Pro, Oberdorla, Germany), 20 μg/ml Gentamycin (Cambrex). 2.5 ng/ml IL-7 (PromoCell, Heidelberg, Germany) and 10 U/ml IL-2 (Novartis Pharma, Nürnberg, Germany) were also added to the TCM at this step. Generation of pMHC/anti-CD28 coated beads, T-cell stimulations and readout was performed in a highly defined in vitro system using four different pMHC molecules per stimulation condition and 8 different pMHC molecules per readout condition.
The purified co-stimulatory mouse IgG2a anti human CD28 Ab 9.3 (Jung et al., 1987) was chemically biotinylated using Sulfo-N-hydroxysuccinimidobiotin as recommended by the manufacturer (Perbio, Bonn, Germany). Beads used were 5.6 μm diameter streptavidin coated polystyrene particles (Bangs Laboratories, Illinois, USA).
pMHC used for positive and negative control stimulations were A*0201/MLA-001 (peptide […] (SEQ ID NO. 289) from modified Melan-A/MART-1) and A*0201/DDX5-001 ([…] from DDX5, SEQ ID NO. 290), respectively.
800.000 beads/200 μl were coated in 96-well plates in the presence of 4×12.5 ng different biotin-pMHC, washed and 600 ng biotin anti-CD28 were added subsequently in a volume of 200 μl. Stimulations were initiated in 96-well plates by co-incubating 1×10^6 CD8+ T cells with 2×10^5 washed coated beads in 200 μl TCM supplemented with 5 ng/ml IL-12 (PromoCell) for 3 days at 37° C. Half of the medium was then exchanged by fresh TCM supplemented with 80 U/ml IL-2 and incubating was continued for 4 days at 37° C. This stimulation cycle was performed for a total of three times. For the pMHC multimer readout using 8 different pMHC molecules per condition, a two-dimensional combinatorial coding approach was used as previously described (Andersen et al., 2012) with minor modifications encompassing coupling to 5 different fluorochromes. Finally, multimeric analyses were performed by staining the cells with Live/dead near IR dye (Invitrogen, Karlsruhe, Germany), CD8-FITC antibody clone SK1 (BD, Heidelberg, Germany) and fluorescent pMHC multimers. For analysis, a BD LSRII SORP cytometer equipped with appropriate lasers and filters was used. Peptide specific cells were calculated as percentage of total CD8+ cells. Evaluation of multimeric analysis was done using the FlowJo software (Tree Star, Oregon, USA). In vitro priming of specific multimer+CD8+ lymphocytes was detected by comparing to negative control stimulations.

HLA-A*02:01 = HLA-A*02:01 (Homo sapiens, UniProt P04439, D140Y/D185E/D98H/E176V/E277Q/G131W/G231S/I119V/I121R/I166T/I218V/L300P/L318F/N151K/N90K/P208A/P217A/Q86G/Q94H/R138H/R169H/T345S); experiment: MHC binding assay: UV-ligand exchange with beta2m ELISA (peptide exchange yield); conditions: binding to HLA-A*02:01, β2m ELISA
Procedure, shortened: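 Exchange yield, UV-ligand exchange: 100-fold diluted samples on streptavidin plates, 1 h at 37 °C; HRP anti-β2m 1 h at 37 °C; TMB read at 450 nm.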

Substance: 233 (SLFESLEYL; listed as Homo sapiens) [compound 233]
- Wells positive [%] (CD8+ T cells): + (<20% = +)
- Peptide exchange (MHC class I binding score, peptide exchange yield) (HLA-A*02:01): +++ (= ≥50% = +++)

Substance: 236 (KMSELQTYV; listed as Homo sapiens) [compound 236]
- Wells positive [%] (CD8+ T cells): + (<20% = +)
- Peptide exchange (MHC class I binding score, peptide exchange yield) (HLA-A*02:01): +++ (= ≥50% = +++)

Substance: 242 (KLQEEIPVL; listed as Homo sapiens) [compound 242]
- Wells positive [%] (CD8+ T cells): + (<20% = +)
- Peptide exchange (MHC class I binding score, peptide exchange yield) (HLA-A*02:01): +++ (= ≥50% = +++)

Substance: 246 (ALAGIVTNV; listed as Homo sapiens) [compound 246]
- Wells positive [%] (CD8+ T cells): + (<20% = +)
- Peptide exchange (MHC class I binding score, peptide exchange yield) (HLA-A*02:01): +++ (= ≥50% = +++)

Substance: 255 (FLMKNSDLYGA; listed as Homo sapiens) [compound 255]
- Wells positive [%] (CD8+ T cells): + (<20% = +)
- Peptide exchange (MHC class I binding score, peptide exchange yield) (HLA-A*02:01): +++ (= ≥50% = +++)

Substance: 257 (KLIDHQGLYL; listed as Homo sapiens) [compound 257]
- Wells positive [%] (CD8+ T cells): + (<20% = +)
- Peptide exchange (MHC class I binding score, peptide exchange yield) (HLA-A*02:01): +++ (= ≥50% = +++)

Substance: 260 (ALNESLVEC; listed as Homo sapiens) [compound 260]
- Wells positive [%] (CD8+ T cells): + (<20% = +)
- Peptide exchange (MHC class I binding score, peptide exchange yield) (HLA-A*02:01): +++ (= ≥50% = +++)

Substance: 263 (SIIEYLPTL; listed as Homo sapiens) [compound 263]
- Wells positive [%] (CD8+ T cells): + (<20% = +)
- Peptide exchange (MHC class I binding score, peptide exchange yield) (HLA-A*02:01): +++ (= ≥50% = +++)

Substance: 267 (YLLDMPLWYL; listed as Homo sapiens) [compound 267]
- Wells positive [%] (CD8+ T cells): + (<20% = +)
- Peptide exchange (MHC class I binding score, peptide exchange yield) (HLA-A*02:01): +++ (= ≥50% = +++)
